{"source": "patent US20070128217A1", "about": "(priority 2003, published 2007)", "key": {"[1]": {"system": "antibodies in sera from SARS patients (sera 1a, 1b, 2, 6, 37, 62, London, SARS-yellow, SARS-green)", "format": "binding, human", "design": "Binding of serum 6 to linear peptides of protein X1 of SARS-CoV Urbani / Binding of serum 37 to linear peptides of protein X1 of SARS-CoV Urbani / Binding of serum 6 to looped/cyclic peptide (PEPSCAN-ELISA) / Binding of serum 37 to looped/cyclic peptide (PEPSCAN-ELISA) / Binding of serum 37 to looped/cyclic peptides of protein X1 of SARS-CoV Urbani / Binding of serum 6 to linear peptides of protein X2 / Binding of serum 37 to linear peptides of protein X2 / Binding of serum 37 to looped/cyclic peptides of protein X2 of SARS-CoV Urbani / Binding of serum 6 to linear peptides of protein M of SARS-CoV Urbani / Binding of serum 37 to linear peptides of protein M of SARS-CoV Urbani / Binding of serum 6 to looped/cyclic peptides of protein M of SARS-CoV Urbani / Binding of serum 37 to looped/cyclic peptides of protein M of SARS-CoV Urbani / Binding of serum 6 to linear peptides of protein X3 of SARS-CoV Urbani / Binding of serum 37 to linear peptides of protein X3 of SARS-CoV Urbani / Binding of serum 37 to looped/cyclic peptides of protein X3 of SARS-CoV Urbani / Binding of serum 6 to linear peptides of protein X4 of SARS-CoV Urbani / Binding of serum 37 to linear peptides of protein X4 of SARS-CoV Urbani / Binding of serum 37 to looped/cyclic peptides of protein X4 of SARS-CoV Urbani / Binding of serum 6 to linear peptides of protein X5 of SARS-CoV Urbani / Binding of serum 37 to linear peptides of protein X5 of SARS-CoV Urbani / Binding of serum 37 to looped/cyclic peptides of protein X5 of SARS-CoV Urbani / Binding of serum 6 to linear peptides of protein N of SARS-CoV Urbani / Binding of serum 37 to linear peptides of protein N of SARS-CoV Urbani / Binding of serum 6 to linear peptide (PEPSCAN-ELISA) / Binding of serum 1a to looped/cyclic peptides of protein N of SARS-CoV Urbani / Binding of serum 1b to looped/cyclic peptides of protein N of SARS-CoV Urbani / Binding of serum 2 to looped/cyclic peptides of protein N of SARS-CoV Urbani / Binding of serum 6 to looped/cyclic peptides of protein N of SARS-CoV Urbani / Binding of serum 37 to looped/cyclic peptides of protein N of SARS-CoV Urbani / Binding of serum 62 to looped/cyclic peptides of protein N of SARS-CoV Urbani / Binding of serum London to looped/cyclic peptides of protein N of SARS-CoV Urbani / Binding of serum SARS-green to looped/cyclic peptides of protein N of SARS-CoV Urbani: unit not given here"}, "[2]": {"system": "control sera (pooled serum of ten healthy LUMC hospital workers; commercial negative donor pooled serum from the Dutch bloodbank)", "format": "binding, human"}, "[3]": {"system": "rabbit serum obtained by immunizing a rabbit with the SARS-CoV strain Frankfurt 1", "format": "binding", "design": "Binding of a rabbit serum to linear peptides / Binding of a rabbit serum to looped peptides / Rabbit serum linear peptides / Rabbit serum looped peptides / Binding of a rabbit serum to linear peptides of protein N of SARS-CoV Urbani (Rabbit serum linear peptides) / Binding of a rabbit serum to looped/cyclic peptides of protein N of SARS-CoV Urbani (Rabbit serum looped peptides): unit not given here"}}, "data": [{"sequence": "ITMTTVYHITVSQIQ", "values": [{"measurement": "Binding of serum 1a to linear peptides of protein X2", "setting": "[1]", "value": 0.7}, {"measurement": "Binding of serum 1a to looped/cyclic peptides of protein X2 of SARS-CoV Urbani", "setting": "[1]", "value": 0.4}, {"measurement": "Binding of serum 1b to linear peptides of protein X2", "setting": "[1]", "value": 0.2}, {"measurement": "Binding of serum 1b to looped/cyclic peptides of protein X2 of SARS-CoV Urbani", "setting": "[1]", "value": 0.5}, {"measurement": "Binding of serum 2 to linear peptides of protein X2", "setting": "[1]", "value": 0.3}, {"measurement": "Binding of serum 2 to looped/cyclic peptides of protein X2 of SARS-CoV Urbani", "setting": "[1]", "value": 0.2}, {"measurement": "Binding of serum 6 to linear peptides of protein X2", "setting": "[1]", "value": 0.5}, {"measurement": "Binding of serum 6 to looped/cyclic peptides of protein X2 of SARS-CoV Urbani", "setting": "[1]", "value": 0.2}, {"measurement": "Binding of serum 37 to linear peptides of protein X2", "setting": "[1]", "value": 0.7}, {"measurement": "Binding of serum 37 to looped/cyclic peptides of protein X2 of SARS-CoV Urbani", "setting": "[1]", "value": 0.4}, {"measurement": "Binding of serum 62 to linear peptides of protein X2", "setting": "[1]", "value": 0.4}, {"measurement": "Binding of serum 62 to looped/cyclic peptides of protein X2 of SARS-CoV Urbani", "setting": "[1]", "value": 0.5}, {"measurement": "Binding of serum London to linear peptides of protein X2", "setting": "[1]", "value": 0.5}, {"measurement": "Binding of serum London to looped/cyclic peptides of protein X2 of SARS-CoV Urbani", "setting": "[1]", "value": 0.2}, {"measurement": "Binding of serum SARS-green to linear peptides of protein X2", "setting": "[1]", "value": 0.2}, {"measurement": "Binding of serum SARS-green to looped/cyclic peptides of protein X2 of SARS-CoV Urbani", "setting": "[1]", "value": 0.3}, {"measurement": "Binding of serum SARS-yellow to linear peptides of protein X2", "setting": "[1]", "value": 0.0}, {"measurement": "Binding of serum SARS-yellow to looped/cyclic peptides of protein X2 of SARS-CoV Urbani", "setting": "[1]", "value": 0.3}, {"measurement": "Binding of Control Serum Blood-Bank to Looped peptides", "setting": "[2]", "value": 0.5}, {"measurement": "Binding of Control serum Blood-bank to linear peptides", "setting": "[2]", "value": 0.4}, {"measurement": "Binding of Control serum LUMC to linear peptides", "setting": "[2]", "value": 0.4}, {"measurement": "Binding of Control serum LUMC to looped peptides", "setting": "[2]", "value": 0.5}, {"measurement": "Binding of a rabbit serum to linear peptides", "setting": "[3]", "value": 0.3}, {"measurement": "Binding of a rabbit serum to looped peptides", "setting": "[3]", "value": 0.3}]}, {"sequence": "ITVSQIQLSLLKVTA", "values": [{"measurement": "Binding of serum 1a to linear peptides of protein X2", "setting": "[1]", "value": 0.6}, {"measurement": "Binding of serum 1a to looped/cyclic peptides of protein X2 of SARS-CoV Urbani", "setting": "[1]", "value": 0.5}, {"measurement": "Binding of serum 1b to linear peptides of protein X2", "setting": "[1]", "value": 0.5}, {"measurement": "Binding of serum 1b to looped/cyclic peptides of protein X2 of SARS-CoV Urbani", "setting": "[1]", "value": 0.5}, {"measurement": "Binding of serum 2 to linear peptides of protein X2", "setting": "[1]", "value": 0.4}, {"measurement": "Binding of serum 2 to looped/cyclic peptides of protein X2 of SARS-CoV Urbani", "setting": "[1]", "value": 0.4}, {"measurement": "Binding of serum 6 to linear peptides of protein X2", "setting": "[1]", "value": 0.5}, {"measurement": "Binding of serum 6 to looped/cyclic peptides of protein X2 of SARS-CoV Urbani", "setting": "[1]", "value": 1.4}, {"measurement": "Binding of serum 37 to linear peptides of protein X2", "setting": "[1]", "value": 0.6}, {"measurement": "Binding of serum 37 to looped/cyclic peptides of protein X2 of SARS-CoV Urbani", "setting": "[1]", "value": 0.5}, {"measurement": "Binding of serum 62 to linear peptides of protein X2", "setting": "[1]", "value": 0.4}, {"measurement": "Binding of serum 62 to looped/cyclic peptides of protein X2 of SARS-CoV Urbani", "setting": "[1]", "value": 0.5}, {"measurement": "Binding of serum London to linear peptides of protein X2", "setting": "[1]", "value": 0.4}, {"measurement": "Binding of serum London to looped/cyclic peptides of protein X2 of SARS-CoV Urbani", "setting": "[1]", "value": 1.4}, {"measurement": "Binding of serum SARS-green to linear peptides of protein X2", "setting": "[1]", "value": 0.1}, {"measurement": "Binding of serum SARS-green to looped/cyclic peptides of protein X2 of SARS-CoV Urbani", "setting": "[1]", "value": 0.3}, {"measurement": "Binding of serum SARS-yellow to linear peptides of protein X2", "setting": "[1]", "value": 0.7}, {"measurement": "Binding of serum SARS-yellow to looped/cyclic peptides of protein X2 of SARS-CoV Urbani", "setting": "[1]", "value": 0.6}, {"measurement": "Binding of Control Serum Blood-Bank to Looped peptides", "setting": "[2]", "value": 0.6}, {"measurement": "Binding of Control serum Blood-bank to linear peptides", "setting": "[2]", "value": 0.5}, {"measurement": "Binding of Control serum LUMC to linear peptides", "setting": "[2]", "value": 0.6}, {"measurement": "Binding of Control serum LUMC to looped peptides", "setting": "[2]", "value": 0.7}, {"measurement": "Binding of a rabbit serum to linear peptides", "setting": "[3]", "value": 0.7}, {"measurement": "Binding of a rabbit serum to looped peptides", "setting": "[3]", "value": 0.4}]}]}
